Source: patent US20090209019A1, “Bioartificial Renal Tubule” (TOKAI UNIVERSITY EDUCATIONAL SYSTEM, priority 2006, published 2009)
Like-named read-outs stand apart in the source and are kept apart here. Marks after values point to notes of the source that are not given here.

How the values were obtained:
MEN-1 and MEK-2 = conditions: cited from earlier work
LLC-PK1 cells [1] = conditions: DMEM medium containing 50 μg/ml U0126 for two weeks
From the text: In both groups, the medium was circulated outside the hollow fibers of the module in a closed system. […] On the fourth day after culture, three of the modules of each group were fixed with glutaraldehyde and were then observed in vertical cross section by scanning electron microscopy (SEM).

AP-1 transactivation = conditions: cited from earlier work
LLC-PK1 cells [2] = conditions: 1% DMSO, DMEM-HG, 0 day to third day
Protocol: On each 6-well plate, 5×10^5 LLC-PK1 cells were seeded. […] Furthermore, two groups of the cells cultured in (4) a DMEM-HG medium and (5) a DMEM-HG medium containing 1% DMSO were checked. The cells on 0 day, the first day, the second day, and the third day after seeding were colored with trypan blue and then measured for number.

LLC-PK1 cells [3] = conditions: 50 μM U0126 and 1% DMSO in DMEM-HG, 0 day to sixth day
Protocol: On each transwell filter unit, 2×10^6 Lewis-lung cancer porcine kidney (LLC-PK1) cells, which were cryopreserved porcine proximal renal tubular epithelial cell lines, were seeded. […] The LLC-PK1 cells on 0 day, the first day, the second day, the third day, and the sixth day after seeding were colored with trypan blue and then measured for number for each group. The LLC-PK1 cells were gently washed with a sterilized PBS solution containing no magnesium or calcium and were then trypsin-treated with 1 ml of a trypsin-EDTA solution at 37° C. for 15 minutes. The treated cells (1 ml) were added to 4 ml of DMEM, were colored with trypan blue, and were then measured for number with a hemocytometer. Measurement was performed three times for each group.

[4] = system: Madin-Darby canine kidney (MDCK) cells; conditions: cells lacking contact inhibition by action of HGF; cited from earlier work
LLC-PK1 cells [5] = system: LLC-PK1 cells
Protocol: In lumens of hollow fibers made of an ethylene-vinyl alcohol (EVAL) copolymer, which forms membranes placed in mini-modules (a membrane area of 65 cm^2), 2×10^8 […] (LLC-PK1) cells, which were porcine proximal renal tubular epithelial cell lines, were seeded. The cells were cultured in such a manner that a DMEM-HG medium was circulated inside and outside the hollow fibers at a rate of 0.25 ml/min. In this operation, the transmembrane pressure was maintained at zero. […] The leakage of urea nitrogen, the leakage of creatinine, the amount of reabsorbed glucose, and the amount of reabsorbed Na^+ were measured for 24 hours.
Method of measuring absorption and leakage: the absorption and leakage are calculated using the following formula:
Absorption rate (leaking rate)=(C0×V0−CI×(VI−VR))/C2V2
wherein C0 represents the concentration of a substance in a discharged external solution, V0 represents the volume of the discharged external solution, CI represents the concentration of the substance in a fed external solution, VI represents the volume of the fed external solution, VR represents the volume of the external solution remaining outside the hollow fibers at the end of an experiment, C2 represents the concentration of the substance in a fed internal solution, and V2 represents the volume of the fed internal solution.

[6] = 50 μM U0126, days 3-4, mean ± SEM, n = 4

Protocol for ERK1/2: In each of 6-well plates, 5×10^5 LLC-PK1 cells were seeded. The cells were divided into three groups on the following day (0 day). […] Then the media (D) and (U) were replaced with a DMEM-HG medium. The cells of each group were further cultured for three days. The cells were subjected to Western blot analysis for ERK1/2 on 0 day, the first day, the second day, the third day, and the sixth day.
The cultured LLC-PK1 cells were used in the form of a cytolytic solution for Western blot analysis. The sampled cells of each group were rinsed with ice-chilled PBS and were then centrifuged at 4° C. for five minutes at 1500 rpm. The centrifugate was collected and then maintained at −80° C.
Proteins were taken from 50 μL of each of ice-chilled cytolytic solutions containing 20 mM Tris-HCl (pH 7.5), 150 mM NaCl, 1 mM Na2EDTA, 1 mM EGTA, 1% Triton, 2.5 mM sodium pyrophosphate, 1 mM β-glycerophosphate, 1 mM Na3VO4 (sodium orthovanadate), and 1 μg/ml leupeptin. The proteins were centrifuged at 4° C. for 15 minutes at 15000×g, whereby soluble proteins were extracted. The protein concentration of each cytolytic solution was measured with a protein assay kit (Protein Assay Rapid Kit; Wako, Osaka, Japan). […] Proteins (20 μg) in each LLC-PK1 cytolytic solution were analyzed with SDS-PAGE (polyacrylamide gel electrophoresis) using a 12.5% polyacrylamide gel (e-PAGEL; ATTO, Tokyo, Japan). […]

SMILES | inhibition of MEK-1 and MEK-2 (MEN-1 and MEK-2) | activated ERK1/2 (ERK1/2; 50 μM U0126 and 1% DMSO, first, second and third day) | activated ERK1/2 after replacing the medium with U0126-free DMEM-HG (ERK1/2; sixth day, three days after removal of U0126) | maintenance of confluent monolayer in hollow fibers (SEM), FIG. 5 legend (LLC-PK1 cells [1]) | AP-1 transactivation (AP-1 transactivation) | change in number of LLC-PK1 cells (LLC-PK1 cells [2]; 10 μM) | change in number of LLC-PK1 cells (LLC-PK1 cells [2]; 30 μM) | change in number of LLC-PK1 cells (LLC-PK1 cells [2]; 50 μM) | change in number of LLC-PK1 cells (LLC-PK1 cells [3]) | contact inhibition of MDCK cells [4] | amount of reabsorbed Na+ compared with control group (LLC-PK1 cells [5]; 50 μM U0126) | amount of reabsorbed glucose compared with control group (LLC-PK1 cells [5]; 50 μM U0126) | leakage of creatinine (Cr) compared with control group (LLC-PK1 cells [5]; 50 μM U0126) | leakage of urea nitrogen (UN) compared with control group (LLC-PK1 cells [5]; 50 μM U0126) | Leakage Cr (LLC-PK1 cells [5]; [6]) | Leakage UN (LLC-PK1 cells [5]; [6]) | Reabsorption Glucose (LLC-PK1 cells [5]; [6]) | Reabsorption Na+ (LLC-PK1 cells [5]; [6])
N#CC(=C(N)Sc1ccccc1N)C(C#N)=C(N)Sc1ccccc1N [U0126, 1,4-diamino-2,3-dicyano-1,4-bis[2-aminophenylthio]butadiene] | direct inhibition | suppressed | Activated ERK1/2 is expressed | confluent monolayers are substantially maintained | suppressor of AP-1 transactivation | not sufficiently prevented from increasing in number | clearly prevented from proliferating | clearly prevented from proliferating | prevented from significantly increasing in number | restoring the contact inhibition | significantly greater | greater than that in the control group, though there is no significant difference | less than that in the control group, though there is no significant difference | significantly less | 3.3 ± 0.5% | 3.6 ± 0.7^b % | 63.9 ± 19.7 mg/day | 1.26 ± 0.10^b mEq/day
COc1cccc(-c2cc(=O)c3ccccc3o2)c1N [PD-98059] | – | – | – | – | – | – | – | – | – | restoring the contact inhibition | – | – | – | – | – | – | – | –
